Data reported in publication PMC12174897, “Hitting Two Birds With One Stone: Dual Modulation of Brain Carbonic Anhydrases and Histone Deacetylases Boosts Memory Consolidation” (Archiv Der Pharmazie, 2025).

Key:
hCA IX = target: T1, hCA IX (Homo sapiens, UniProt Q16790); test: stopped-flow CO2 hydrase assay, CA activation; assay type: biochemical; settings: activation constant; mean from three assays, errors ±5%–10%
T1 construct: made in house

hCA I = target: T2, hCA I (Homo sapiens, UniProt P00915); test: stopped-flow CO2 hydrase assay, CA activation; assay type: biochemical; settings: for K A hCA I: activation constant, mean from three assays, errors ±5%–10%
T2 construct: purchased
T2 sequence (P00915 whole entry): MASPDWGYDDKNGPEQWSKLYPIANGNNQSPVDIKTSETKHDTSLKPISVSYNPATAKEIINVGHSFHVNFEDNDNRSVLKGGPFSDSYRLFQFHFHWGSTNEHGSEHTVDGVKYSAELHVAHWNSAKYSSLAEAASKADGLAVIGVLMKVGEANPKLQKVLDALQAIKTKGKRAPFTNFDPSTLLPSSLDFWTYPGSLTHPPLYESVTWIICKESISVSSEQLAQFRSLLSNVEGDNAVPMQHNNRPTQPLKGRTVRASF

hCA II = target: T3, hCA II (Homo sapiens, UniProt P00918); test: stopped-flow CO2 hydrase assay, CA activation; assay type: biochemical; settings: for K A hCA II: activation constant, mean from three assays, errors ±5%–10%
T3 construct: purchased

Male C57Bl6 mice = test: Novel object recognition (NOR) paradigm, memory consolidation; assay type: in vivo; design: key to Discrimination index (DI): DI = (tN − tF)/(tN + tF); novel vs familiar exploration time; settings: for Discrimination index (DI): 5 µL i.c.v., retention test 24 h, vehicle −0.057 ± 0.069; for percentage of time spent exploring familiar vs novel object, retention test: 5 µL i.c.v. immediately after acquisition, retention test 24 h later
Experimental: This set of experiments was designed to evaluate the impact of single reference compounds (D‐Phe and 19) as well as the dual acting (12 and 14) on recognition memory. These compounds were administered directly into the brain lateral ventricles immediately after the acquisition session to investigate their impact specifically on memory consolidation. […] Such a design avoids the use of amnestic drugs that could interfere with data interpretation and represents an advantage when studying the procognitive potential of novel compounds. The dose range and administration route were also chosen based on previous reports showing that the procognitive effects of CA and HDAC modulators rely on their action on centrally and not peripherally expressed enzymes. Moreover, the injection of the tested compounds directly into the lateral ventricles (i.c.v.) consents widespread drug distribution in the brain and at the same time minimizes potential interference of peripheral phenomena such as barriers crossing, protein binding, drug metabolism, that are highly influenced by specific drug characteristics such as size, solubility, charge. Therefore, the i.c.v. route represents an advantage in studies comparing the potency of compounds by ensuring precise control of drug concentrations in the target organ and excluding confounding factors related to peripheral pharmacokinetic mechanisms.
Figure 5 Dual modulation of CAs and HDACs potently boost recognition memory in mice. (A) Schematic drawing showing the sequence of the behavioral procedures: immediately after the acquisition phase mice received infusions (5 µL) of solutions containing either vehicle, the CA activator D‐Phe, the HDAC inhibitor 19 dual acting compounds 12 and 14 at 0.5, 5, or 50 nmol/µL concentrations. The retention test was performed 24 h later. (B) Percentages of time spent exploring the familiar (F) or novel (N) objects during the retention test. The dashed line indicates a theoretical means of 50%. Statistically significant differences determined by two‐way ANOVA and Bonferroni's MCT: ****p < 0.0001 F versus N. (C) Discrimination indexes calculated with the formula DI = (tN tF)/(tN + tF). Statistically significant differences determined by one‐way ANOVA and Bonferroni's MCT: *p < 0.05; **p < 0.01 versus vehicle‐treated group. In both graphics, data are expressed either as individual data points for each animal (scattered plot) znc means ± SEM represented by bar graphs. N = 6–9 animals by experimental group.
Male C57Bl6 mice were submitted to the stereotaxic surgery to implant a guide cannula into the brain lateral ventricles as described above. One week after the surgery, their behavior was assessed in an open‐field arena (60 × 70 cm and 30 cm high) constructed in white acrylic Plexiglass and placed in a sound‐attenuated room. The detailed experimental procedure is already published. The NOR protocol consists of three sessions: habituation, acquisition, and retention test separated by 24 h intertrial intervals. During habituation, the animals freely explored the empty arena for 10 min. Twenty‐four hours later, each animal was placed in the same position and facing the same direction into the test arena in the presence of two identical objects (gray plastic shapes such as cubes, cylinders, or pyramids 8 cm high) and left free to explore it for 5 min. […] The retention test session was performed 24 h after acquisition, during which, each mouse was again placed in the test arena for 5 min in the presence of one of the familiar object and a novel object. The position of the new objects (left/right) was randomized to prevent bias from order or place preference.

[1] = system: HDAC activity of HeLa nuclear extract; test: Fluor de Lys-Green HDAC assay kit, HDAC inhibition; assay type: biochemical
Experimental: (§1) HeLa nuclear extract, rich in HDAC activity, is included with the kit. Trichostatin A solution was used as a positive control and model inhibitor. Plates were read with excitation at 380 nm and emission at 440 nm on a TECAN Spark multimode microplate reader. Histone deacetylase activity was measured according to the manufacturer's instructions.
as §1, with “Spark®” for “Spark”, “to” for “to the”

hCA VII = target: T4, hCA VII (Homo sapiens, UniProt P43166); test: stopped-flow CO2 hydrase assay, CA activation; assay type: biochemical; settings: for K A hCA VII: activation constant, mean from three assays, errors ±5%–10%
T4 construct: made in house
T4 sequence (P43166 whole entry): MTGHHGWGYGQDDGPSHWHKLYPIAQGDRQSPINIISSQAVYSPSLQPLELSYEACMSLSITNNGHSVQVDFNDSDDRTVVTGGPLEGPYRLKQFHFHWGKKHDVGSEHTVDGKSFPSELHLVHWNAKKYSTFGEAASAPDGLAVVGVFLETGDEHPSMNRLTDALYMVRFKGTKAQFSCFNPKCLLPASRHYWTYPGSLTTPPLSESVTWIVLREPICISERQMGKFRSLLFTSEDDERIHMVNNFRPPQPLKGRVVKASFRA
Experimental: (§2) . The potencies were reported as K A values in Table 1 and compared with the reference compound D‐Phe. AC50 curves are reported in the Supporting Information.
(§3) . The uncatalyzed rates were determined in the same manner and subtracted from the total observed rates. Stock solutions of the inhibitor (0.1 mM) were prepared in distilled–deionized water and dilutions up to 0.01 nM were done thereafter with the assay buffer. Inhibitor and enzyme solutions were preincubated together for 15 min at r.t. before the assay, to allow for the formation of the E–I complex. The inhibition constants were obtained by nonlinear least‐squares methods using PRISM 3 and the Cheng‐Prusoff equation [41] and represent the mean from at least three different determinations. Apart from commercial hCAs I and II, all CA isoforms were recombinant proteins obtained in house, as reported earlier.
as §3, with “prior to” for “before”, “least-squares” for “least‐squares”, “Cheng-Prusoff” for “Cheng‐Prusoff”, “[2]” for “[41]”

hCA VA = target: T5, hCA VA (Homo sapiens, UniProt P35218); test: stopped-flow CO2 hydrase assay, CA activation; assay type: biochemical; settings: for K A hCA VA: activation constant, mean from three assays, errors ±5%–10%
T5 construct: made in house
T5 sequence (P35218 39-305): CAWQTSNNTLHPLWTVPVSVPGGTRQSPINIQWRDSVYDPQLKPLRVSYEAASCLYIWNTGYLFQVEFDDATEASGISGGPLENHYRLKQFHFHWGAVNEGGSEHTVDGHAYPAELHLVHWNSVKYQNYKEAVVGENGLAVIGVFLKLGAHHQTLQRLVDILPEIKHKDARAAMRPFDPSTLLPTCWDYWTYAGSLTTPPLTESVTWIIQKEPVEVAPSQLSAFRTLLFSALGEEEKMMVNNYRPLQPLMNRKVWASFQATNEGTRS
Experimental: as §2, §3
as §3, with “prior to” for “before”, “least-squares” for “least‐squares”, “Cheng-Prusoff” for “Cheng‐Prusoff”, “[2]” for “[41]”

hCA IV = target: T6, hCA IV (Homo sapiens, UniProt P22748); test: stopped-flow CO2 hydrase assay, CA activation; assay type: biochemical; settings: for K A hCA IV: activation constant, mean from three assays, errors ±5%–10%
T6 construct: made in house
T6 sequence (P22748 19-312): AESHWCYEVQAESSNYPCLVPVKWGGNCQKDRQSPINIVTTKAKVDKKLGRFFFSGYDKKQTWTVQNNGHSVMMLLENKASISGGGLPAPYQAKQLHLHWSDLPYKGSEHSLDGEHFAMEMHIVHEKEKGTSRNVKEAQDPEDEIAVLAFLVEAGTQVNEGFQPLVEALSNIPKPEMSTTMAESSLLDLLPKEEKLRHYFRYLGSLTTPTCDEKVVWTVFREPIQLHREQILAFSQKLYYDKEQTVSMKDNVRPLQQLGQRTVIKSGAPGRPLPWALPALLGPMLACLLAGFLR
Experimental: as §2, §3
as §3, with “prior to” for “before”, “least-squares” for “least‐squares”, “Cheng-Prusoff” for “Cheng‐Prusoff”, “[2]” for “[41]”

[2] = system: CA activity in cortical and hippocampal brain homogenates; test: Ex vivo CA activity in brain homogenates after i.c.v. infusion (stopped-flow); settings: 50 nmol/µL, 5 µL i.c.v., 30 min after infusion; vehicle = 100%
Experimental: (§4) Specifically, mice were euthanized 30 min after the i.c.v. infusion, their brains were collected, and hippocampi and frontal cortices were immediately dissected on ice and then individually homogenized in 1 mL of ice‐cold 20 mM Hepes buffer (pH 7.5).
The overall catalytic activity of CAs (K cat) of each individual preparation was measured with a stopped flow spectrophotometric method monitoring the physiological CO2 hydration reaction catalyzed by these enzymes [30]
Animals were killed 30 min after drug infusion, and the brain structures were immediately dissected on ice and homogenized. CA activity was measured with a stopped‐flow method. The mean CA activity measured in the group of control mice treated with vehicle was taken as 100%, the activities measured for animals treated with compounds were normalized to this value. Data are expressed as means ± S.E.M. of six–nine mice per experimental group. One‐way ANOVA and Bonferroni MCT, **p < 0.01 versus vehicle.
In the infusion days, a stainless‐steel injection micro‐needle (outer diameter 0.25 mm) connected through a polyethylene catheter to a 1000 µL Hamilton precision syringe was inserted into the cannulae previously implanted and lowered into the lateral cerebral ventricle (DV 2.4 mm). Then, 5 µL of a solution containing the testing compounds or vehicle were delivered using an infusion pump at 1 µL/min flow. The needle was left in place for one additional minute after each infusion to avoid efflux. Thirty minutes after drug injections, the animals were euthanized, their brain immediately removed, the cortices and hippocampi were rapidly dissected on ice, weighted, and stored at –80°C until use.
Animals pertaining to the control group received infusions of vehicle (physiological saline containing 1% DMSO (v/v)).
Brain tissues were homogenized in 1.0 mL of ice‐cold 20 mM Hepes buffer (pH 7.5). After centrifugation at 20,000g for 30 min, an Applied Photophysics stopped‐flow instrument was used for assaying the CA‐catalyzed CO2 hydration activity from the samples as previously described [23, 34]. […] The mean CA activity determined in the brain samples from the control group of mice treated with vehicle was set as 100% and all the individual calculated values were then expressed as a percentage of controls.

[3] = system: HDAC activity in hippocampal and cortical brain homogenates; test: Ex vivo HDAC residual activity in brain homogenates after i.c.v. infusion (fluorometric); settings: 50 nmol/µL, 5 µL i.c.v., 30 min after infusion; vehicle = 100%
Experimental: as §4
Animals were killed 30 min after drug infusion, and the brain structures were immediately dissected on ice and homogenized. HDAC activity was measured with the fluorometric method. The HDAC mean activity of the control group mice was taken as 100%, % of the activities measured for animals treated with compounds were normalized to this value. Data are expressed as means ± S.E.M. of 6–13 mice per experimental group. One‐way ANOVA and Bonferroni MCT, ****p < 0.0001 versus vehicle‐treated group. […]
The residual enzymatic activity in brain tissues was measured using Fluor de Lys‐Green HDAC fluorometric activity assay kit purchased from Enzo Life Sciences (Farmingdale, NY). […] Measurements were performed using a TECAN Spark multimode microplate reader, set to a wavelength of 280 nm. Once the absorbance was measured, the concentration of the enzyme HDAC contained in the brain homogenates was calculated according to Lambert‐Beer's law. […] Fluorescence was measured at 380 nm and detected at 440 nm. Each test included a blank as a reference for minimal fluorescence, containing only buffer and substrate, thus lacking any protein component [49, 50]. […]

[4] = mean from three assays, errors 5%–10%
[5] = supplement InChI file, given as KI

Structure (SMILES) | K A hCA IX (hCA IX) | K A hCA I (hCA I) | K A hCA II (hCA II) | Discrimination index (DI) (Male C57Bl6 mice; 0.5 nmol/µL) | Discrimination index (DI) (Male C57Bl6 mice; 5 nmol/µL) | percentage of time spent exploring familiar vs novel object, retention test (Male C57Bl6 mice; 5 nmol/μL) | Discrimination index (DI) (Male C57Bl6 mice; 50 nmol/µL) | percentage of time spent exploring familiar vs novel object, retention test (Male C57Bl6 mice; 50 nmol/μL) | EC50 [1, 4] | K A hCA VII (hCA VII) | K A hCA VA (hCA VA) | K A hCA IV (hCA IV) | CA activity (%) in cortical homogenates versus vehicle [2] | CA activity (%) in hippocampal homogenates versus vehicle [2] | further results
Nc1ccccc1NC(=O)c1ccc(NC(=O)NCCc2c[nH]cn2)cc1.O=C(O)C(F)(F)F [Compound 12, 2‐(4‐{3‐[2‐(1H‐imidazol‐4‐yl)ethyl]ureido}benzamido)benzenaminium 2,2,2‐trifluoroacetate] | 68.8 µM | 75.4 µM | 66.8 µM | −0.077 ± 0.078 | 0.288 ± 0.110 | spent significantly more time exploring the novel object | 0.313 ± 0.173 | spent significantly more time exploring the novel object | 2.8 µM | 32.0 µM | > 10000 µM | 23.0 µM | significantly increased | significantly increased | 
Nc1cc(F)ccc1NC(=O)c1ccc(NC(=O)NCCc2c[nH]cn2)cc1.[O-][Cl+3]([O-])([O-])O.[O-][Cl+3]([O-])([O-])O [Compound 14, 4‐{3‐[2‐(1H‐Imidazol‐4‐yl)Ethyl]Ureido}‐N‐(2‐Amino‐4‐Fluorophenyl)Benzamide Diperchlorate] | > 10000 µM | 53.8 µM | 49.5 µM | −0.026 ± 0.274 | 0.317 ± 0.132 | spent significantly more time exploring the novel object | 0.224 ± 0.223 | spent significantly more time exploring the novel object | 5.3 µM | 26.1 µM | 37.9 µM | 49.1 µM | significantly increased | significantly increased | fold more potent activator of hCA I (hCA I; K A of 14 compared with 12): 1.4 fold; fold more potent activator of hCA II (hCA II; K A of 14 compared with 12): 1.3 fold; fold more potent activator of hCA VII (hCA VII; K A of 14 compared with 12): 1.2 fold
Nc1ccccc1NC(=O)c1ccc(NCC(=O)NCCc2ccccc2)cc1 [Compound 19, N‐(2‐Aminophenyl)‐4‐{[2‐Oxo‐2‐(Phenethylamino)Ethyl]Amino}Benzamide] |  |  |  |  |  |  |  | promnesic effect | 14.2 µM | > 10000 µM | > 10000 µM | > 10000 µM | no differences were observed | no differences were observed | activation constant KA (hCA VII; [5]): > 10 mM; KA (activation constant) (hCA VA; [5]): > 10 mM; activation constant KA (hCA IV; [5]): > 10 mM; HDAC residual activity (%) in cortical homogenates versus vehicle [3]: significant reduction; HDAC residual activity (%) in hippocampal homogenates versus vehicle [3]: significant reduction
N[C@H](Cc1ccccc1)C(=O)O [D‐Phe, reference compound] |  | 86.0 µM | 0.035 µM |  |  |  |  | promnesic effect |  |  |  | 49.3 µM | significantly increased | significantly increased | 
CC(/C=C/C(=O)NO)=C\[C@@H](C)C(=O)c1ccc(N(C)C)cc1 [Trichostatin A, reference compound] |  |  |  |  |  |  |  |  |  |  |  |  |  |  | EC50 ([1]; reference inhibitor): 0.0018 µM
